# Patent US7105566B2, “Methods of treatment during vascular procedures” (Allergan, Inc., priority 2002, dated 2006)
# “And” between values parts separate entries of the source, which are not always exact repeats. Equal entries are not always repeated.
# Tests used:
# [1] = Serum concentration of Compound 1 in male cynomolgus monkeys; format: in vivo, cynomolgus monkey; settings: given orally
# Description: Five male cynomologus monkeys were employed in the study. Three of the five monkeys were treated with Compound 1 at a daily dosage of 1.25 mg/kg (orally) for a period of 25 days. Compound 1 is an RAR antagonist or inhibitor. The remaining two were similarly treated with a vehicle to serve as control. Serum samples were collected on days 1, 8, 15, 22 and 25 for triglyceride determination. Serum samples from days 8, 15, 22 and 25 were also assayed for the concentration of Compound 1.
# female ZDF rats = test: Serum triglycerides and cholesterol in female ZDF rats, Compound 1 and Compound 2 at 10 mg/kg; format: in vivo, rat; settings: 10 mg/kg oral
# Description: A similar experiment to that described above was performed. Briefly, female ZDF rats (12 weeks old) were fed either a PM 5008 diet or a GMI 13004 diet. Control vehicle consisted of 2% DMSO and 98% corn oil. Compound 1 and Compound 2 were administered at a dosage of 10 mg/kg body weight. Dosings were administered at approximately 8 a.m. Serum was collected on the first day of dosing at approximately 8 a.m. (Day 1, 0 hour) and 2 p.m. (Day 1, 6 hour); the fourth day of dosing at approximately 8 a.m. (Day 4, 0 hour); and the last day of dosing at approximately 8 a.m. (Day 7, 0 hour) and 2 p.m. (Day 7, 6 hour). The levels of triglycerides and cholesterol in the serum samples were measured. The results are shown in Table 2 and are illustrated graphically in FIGS. 3A and 3B.
# [2] = Stability to normal light; format: physicochemical
# [3] = GMI 13004 diet, group mean of 5 rats, first day of dosing, 2 p.m.
# [4] = GMI 13004 diet, group mean of 5 rats, first day of dosing, about 8 a.m. (baseline)
# [5] = GMI 13004 diet, group mean of 5 rats, fourth day of dosing, 8 a.m.
# [6] = GMI 13004 diet, group mean of 5 rats, last day of dosing, 2 p.m.
# [7] = GMI 13004 diet, group mean of 5 rats, last day of dosing, 8 a.m.
# [8] = GMI 13004 diet, individual animals, first day of dosing, 2 p.m.
# [9] = GMI 13004 diet, individual animals, first day of dosing, about 8 a.m. (baseline)
# [10] = GMI 13004 diet, individual animals, fourth day of dosing, 8 a.m.
# [11] = GMI 13004 diet, individual animals, last day of dosing, 2 p.m.
# [12] = GMI 13004 diet, individual animals, last day of dosing, 8 a.m.
structure (smiles),measurement,setting,value
"CCc1ccc(C2=CC(C)(C)Sc3ccc(C#Cc4ccc(C(=O)O)cc4)cc32)cc1 [Compound 1, 4-[[4-(4-ethylphenyl)-2,2-dimethyl-(2H)-thiochromen-6-yl]-ethynyl]-benzoic acid]",oral absorption,[1],well absorbed
same,effect on lowering serum cholesterol,female ZDF rats,more modest effect
same,serum triglycerides as % of pre-treatment levels,female ZDF rats,about 7%
same,"Cholesterol day 1, 6 hr, Mean",female ZDF rats; [3],107
same,"Triglycerides day 1, 6 hr, Mean",female ZDF rats; [3],1183
same,"Cholesterol day 1, 0 hr, Mean",female ZDF rats; [4],131
same,"Triglycerides day 1, 0 hr, Mean",female ZDF rats; [4],1410
same,"Cholesterol day 4, 0 hr, Mean",female ZDF rats; [5],82
same,"Triglycerides day 4, 0 hr, Mean",female ZDF rats; [5],138
same,"Cholesterol day 7, 6 hr, Mean",female ZDF rats; [6],90
same,"Triglycerides day 7, 6 hr, Mean",female ZDF rats; [6],86
same,"Cholesterol day 7, 0 hr, Mean",female ZDF rats; [7],89
same,"Triglycerides day 7, 0 hr, Mean",female ZDF rats; [7],72
same,"Cholesterol day 1, 6 hr",female ZDF rats; [8],132 and 90 (2×) and 126 and 96
same,"Triglycerides day 1, 6 hr",female ZDF rats; [8],1248 and 750 and 1674 and 978 and 1266
same,"Cholesterol day 1, 0 hr",female ZDF rats; [9],162 and 108 (2×) and 156 and 120
same,"Triglycerides day 1, 0 hr",female ZDF rats; [9],1770 and 1182 and 1500 and 1278 and 1320
same,"Cholesterol day 4, 0 hr",female ZDF rats; [10],78 and 90 (2×) and 84 and 66
same,"Triglycerides day 4, 0 hr",female ZDF rats; [10],174 and 132 and 114 and 102 and 168
same,"Cholesterol day 7, 6 hr",female ZDF rats; [11],102 and 72 and 132 and 48 and 96
same,"Triglycerides day 7, 6 hr",female ZDF rats; [11],96 and 66 and 60 (2×) and 150
same,"Cholesterol day 7, 0 hr",female ZDF rats; [12],96 (2×) and 84 and 66 and 102
same,"Triglycerides day 7, 0 hr",female ZDF rats; [12],78 and 96 and 60 (2×) and 66
same,stability to normal light,[2],relatively stable to normal light
